Data on four molecules can be found in publication PMC6337391 (Molecules, 2019).

Assay [1] can be described thus: ABTS•+ decolorization assay. The method, boiled down:
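Compounds (10 mM DMSO stocks, diluted) added to ABTS•+ radical generated by potassium persulfate oxidation of ABTS. Decolorization followed as absorbance at room temperature, with Trolox as standard.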

Assay [2] is described as follows: Reducing activity with the stable radical DPPH. The method, boiled down:
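DPPH (final 0.05 mM) in absolute ethanol mixed with an equal volume of compound at 0.05 or 0.1 mM, ethanol as control. Absorbance at 517 nm read at room temperature after 20 and 60 min, expressed as reducing activity RA%.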
Background: DPPH is a stable violet radical that fades when it is reduced.

Assay [3] deals with T1, human h-15-LOX-1 (Homo sapiens, UniProt P16050).
T1 sequence (P16050 1-662): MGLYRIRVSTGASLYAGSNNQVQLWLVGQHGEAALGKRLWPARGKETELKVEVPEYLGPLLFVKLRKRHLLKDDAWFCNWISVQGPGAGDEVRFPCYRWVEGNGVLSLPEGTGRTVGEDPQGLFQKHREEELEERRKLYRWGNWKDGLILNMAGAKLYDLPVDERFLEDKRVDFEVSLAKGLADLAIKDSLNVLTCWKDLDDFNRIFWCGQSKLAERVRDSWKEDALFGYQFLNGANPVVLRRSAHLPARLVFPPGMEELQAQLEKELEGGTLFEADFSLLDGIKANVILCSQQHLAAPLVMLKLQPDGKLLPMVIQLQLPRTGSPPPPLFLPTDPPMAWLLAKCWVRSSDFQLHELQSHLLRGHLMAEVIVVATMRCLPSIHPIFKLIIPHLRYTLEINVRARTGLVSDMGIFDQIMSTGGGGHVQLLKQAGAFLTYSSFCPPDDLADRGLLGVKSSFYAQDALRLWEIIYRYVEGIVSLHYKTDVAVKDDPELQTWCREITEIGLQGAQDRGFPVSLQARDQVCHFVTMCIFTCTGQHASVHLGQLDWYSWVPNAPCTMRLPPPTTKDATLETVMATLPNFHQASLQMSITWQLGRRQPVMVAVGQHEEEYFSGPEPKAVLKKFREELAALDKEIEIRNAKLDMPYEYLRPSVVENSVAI
In words: Human h-15-LOX-1 screening UV assay. The class given is biochemical. The conditions noted are these: for h-15-LOX-1 inhibitory potency ranking at 50 µM (in words): 10 min pre-incubation. Here is the method: The residual enzyme activity was measured after 10 min pre-incubation with the tested compounds at room temperature. […] Compound c11 follows.
The assay buffer consists of HEPES titrated to pH 7.5 using a concentrated aqueous solution of NaOH. Linoleic acid (LA) was used as a substrate. The linear absorbance increase in absence of the inhibitor was set as 100%, whereas the absorbance increase in absence of the enzyme was set to 0%. All experiments were performed in triplicate and the average triplicate values and their standard deviations are plotted. The vertical axis describes the residual enzyme activity percent % of the human h-15-LOX-1, whereas the horizontal axis describes the concentration of 50 µM of the compounds. The half maximal inhibitor concentration (IC50) of the inhibitors for h-15-LOX-1 was determined using the same assay (Figure 6 and Figure 7).

As to `CC(=O)c1ccc(OCCOc2ccc(C(C)=O)cc2)cc1` [di, 1,1′-((ethane-1,2-diylbis(oxy))bis(4,1-phenylene))diethanone], in assay [1], the “ABTS•+ Inhb. % @ 100 μM” value is “No”.

As for `O=C(/C=C/C=C/c1ccc([N+](=O)[O-])cc1)c1ccc(OCCCOc2ccc(C(=O)/C=C/C=C/c3ccc([N+](=O)[O-])cc3)cc2)cc1` [c11, (2E,2′E,4E,4′E)-1,1′-((propane-1,3-diylbis(oxy))bis(4,1-phenylene))bis(5-(4-nitrophenyl)penta-2,4-dien-1-one)], the “ABTS•+ Inhb. % @ 100 μM” value in assay [1] is “No”. In assay [2], the “RA% 100 μM 20 min” value was “No” and the “RA% 100 μM 60 min” value was “no”. The “h-15-LOX-1 inhibitory potency ranking at 50 µM (in words)” value in assay [3] was “(2nd potent at 50 μM)”.

Broadly, the IC50 is the concentration that gives 50% inhibition. As for `O=C(/C=C/c1cccc2ccccc12)c1ccccc1O` [b4, (E)-1-(2-hydroxyphenyl)-3-(naphthalen-1-yl) prop-2-en-1-one], the “ABTS•+ Inhb. % @ 100 μM” value in assay [1] is listed as “No”. In addition, in assay [2], the “RA% 100 μM 20 min” value is reported as 30% and the “RA% 100 μM 60 min” value was found to be 20%. In addition, the “h-15-LOX-1 inhibitory potency ranking at 50 µM (in words)” value in assay [3] is reported as “highest activity within the group”. For the same molecule, the IC50 in assay [3] (read-out: h-15-LOX-1 Inhb. IC50) turned out to be 9.5 µM.

For `CC(=O)c1ccc(OCCCCCCCOc2ccc(C(C)=O)cc2)cc1` [dvi, 1,1′-((heptane-1,7-diylbis(oxy))bis-(4,1-phenylene)) diethanone], the “ABTS•+ Inhb. % @ 100 μM” value in assay [1] was “No”.
